Test: AERSMine mining of FAERS reports: lithium toxicity and inversely correlated drugs
Design: species or system patients
Conditions: for safety signal IC for lithium-specific neurological adverse events: human
Text: To establish lithium-adverse event correlation, AERSMine uses multiple quantitative elements such as AE incidence rate, multiple hypothesis testing, relative risk, and safety signals. For this example, the following analytical parameters were used: total reports per adverse event were set to ≥2,000; adverse event and lithium intake co-reported in at least 10 reports; RR set to ≥2; FDR-corrected p-value of <0.001 (Benjamini and Hochberg); and safety signal (i.e., IC) set to >0.
Additionally, by excluding patients with comorbidities (e.g., diabetes) reported to worsen mental health and exacerbate neurological symptoms from the analysis, allows AERSMine to accurately represent potentially lithium-specific adverse events (e.g., aggression, irritability, anger, suicidal tendencies, tremors, and other neurological symptoms, movement disorders, personality changes, etc.). The inventors then sought to determine if AERSMine could identify drugs that are inversely correlated with these adverse events, which may indicate a potential reduction in risk and represent a novel combinatorial strategy to mitigate lithium-related toxicity. […] (no concomitant use with lithium, IC<0, i.e., number of observed events<expected, FDR-corrected p<0.001). To understand how the risks differ across these therapeutic agents, AERSMine additionally allows comparative analyses across multiple drugs or therapeutic classes, which show the differential effects across the inversely correlated drugs.

| SMILES | number of adverse events significantly correlated with lithium use (of 4,180 adverse events in 22,575 patient reports, RR>=2, FDR p<0.001, IC>0) [adverse events] | safety signal IC for lithium-specific neurological adverse events |
| --- | --- | --- |
| [Li] [lithium] | 327 |  |
| CCCCC(=O)N(Cc1ccc(-c2ccccc2-c2nnn[nH]2)cc1)[C@H](C(=O)O)C(C)C [valsartan] |  | < 0 |
| CCCCc1nc(Cl)c(CO)n1Cc1ccc(-c2ccccc2-c2nn[nH]n2)cc1 [losartan] |  | < 0 |
